Consider 5 compounds from ChEMBL document CHEMBL4417633, “Inhibitory polypeptides specific to WNT inhibitors” (2017).

Active and inactive are the calls of the source. The calls are words filed in the database; no cut-off is given here. Where a SMILES comes first, the peptide text is derived from it.

The target in assay [1] is T1, Dickkopf-related protein 1 (Homo sapiens, UniProt O94907).
T1 sequence (O94907 whole entry): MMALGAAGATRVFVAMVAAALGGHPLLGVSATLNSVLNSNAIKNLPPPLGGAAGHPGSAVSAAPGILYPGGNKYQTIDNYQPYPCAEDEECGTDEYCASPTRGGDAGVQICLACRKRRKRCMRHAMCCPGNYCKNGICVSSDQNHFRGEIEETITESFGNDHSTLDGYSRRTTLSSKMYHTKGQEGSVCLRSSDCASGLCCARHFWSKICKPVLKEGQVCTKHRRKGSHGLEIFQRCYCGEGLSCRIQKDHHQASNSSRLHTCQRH
Briefly: Inhibition of human DKK1 in MC3T3E1/TetON-Wnt1/STF-Luc#5 cells assessed as DKK1 neutralizing activity by Wnt1-induced TCF/LEF luciferase reporter gene assay. In general terms: Reporter assays use an easily measured gene product as a stand-in for the process of interest.

The target of assay [2] is T2, Dickkopf WNT-signaling pathway inhibitor 1 (Rattus norvegicus) (UniProt A6I0Z0).
T2 sequence (whole entry): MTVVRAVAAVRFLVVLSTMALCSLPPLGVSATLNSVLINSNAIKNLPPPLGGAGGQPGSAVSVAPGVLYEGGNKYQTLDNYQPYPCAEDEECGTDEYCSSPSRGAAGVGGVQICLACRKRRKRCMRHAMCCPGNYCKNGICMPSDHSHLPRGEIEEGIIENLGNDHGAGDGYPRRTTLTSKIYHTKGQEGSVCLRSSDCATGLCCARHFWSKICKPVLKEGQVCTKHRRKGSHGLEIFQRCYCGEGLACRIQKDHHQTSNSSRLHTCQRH
The assay can be described thus: Inhibition of biotin-labeled rat recombinant DKK1 assessed as reduction in DKK1 interaction with LRP-6/Fc incubated overnight by chemiluminescence based Alpha-screen assay.

Assay [3] concerns the target T3, Dickkopf-related protein 1 (Homo sapiens) (UniProt O94907).
T3 sequence (whole entry): T1 sequence (O94907 whole entry)
Briefly: Inhibition of biotin-labeled human recombinant DKK1 assessed as reduction in DKK1 interaction with LRP-6/Fc incubated overnight by chemiluminescence based Alpha-screen assay.

What is called IC50 is the concentration that inhibits the measured activity by half. Take `CC[C@H](C)[C@H](NC(=O)[C@H](CCC(=O)O)NC(=O)[C@H](CC(=O)O)NC(=O)[C@H](CO)NC(=O)[C@H](C)NC(=O)[C@H](CC(=O)O)NC(=O)[C@@H](NC(=O)[C@H](CS)NC(=O)[C@H](CC(=O)O)NC(=O)[C@@H]1CCCN1C(=O)[C@H](Cc1ccccc1)NC(=O)CNC(=O)[C@H](CC(=O)O)NC(=O)[C@H](CS)NC(=O)[C@H](CCCNC(=N)N)NC(=O)[C@H](Cc1c[nH]c2ccccc12)NC(=O)[C@H](CCC(=O)O)NC(=O)[C@H](CCSC)NC(=O)[C@@H]1CCCN1C(=O)[C@H](Cc1ccc(O)cc1)NC(=O)[C@H](CS)NC(=O)[C@H](Cc1cnc[nH]1)NC(=O)[C@@H]1CCCN1C(=O)[C@H](Cc1cnc[nH]1)NC(=O)[C@H](CC(N)=O)NC(=O)[C@H](CCCNC(=N)N)NC(=O)[C@H](CS)NC(=O)[C@H](CCC(N)=O)NC(=O)[C@H](Cc1ccccc1)NC(=O)[C@H](Cc1ccc(O)cc1)NC(=O)[C@H](CO)NC(=O)[C@@H](NC(=O)[C@@H]1CCCN1C(=O)[C@@H](N)CS)C(C)C)C(C)C)C(=O)NCC(=O)N[C@@H](CS)C(=O)NCC(=O)NCC(=O)NCC(=O)NCC(=O)O` (H-CPVSYFQCRNHPHCYPMEWRCDGFPDCVDASDEIGCGGGG-OH): the concentration for half-maximal inhibition (IC50) in assay [1] is 0.8 to 3 nM. Besides, the inhibition result in assay [2] and in assay [3] was “Active” throughout.

With `CC[C@H](C)[C@H](NC(=O)[C@H](CS)NC(=O)[C@H](CC(=O)O)NC(=O)[C@@H]1CCCN1C(=O)[C@H](Cc1ccccc1)NC(=O)CNC(=O)[C@H](CC(=O)O)NC(=O)[C@H](CS)NC(=O)[C@H](CCCNC(=N)N)NC(=O)[C@H](Cc1c[nH]c2ccccc12)NC(=O)[C@H](CCC(=O)O)NC(=O)[C@H](CCSC)NC(=O)[C@@H]1CCCN1C(=O)[C@H](Cc1ccc(O)cc1)NC(=O)[C@H](CS)NC(=O)[C@H](Cc1cnc[nH]1)NC(=O)[C@@H]1CCCN1C(=O)[C@H](Cc1cnc[nH]1)NC(=O)[C@H](CC(N)=O)NC(=O)[C@H](CCCNC(=N)N)NC(=O)[C@H](CS)NC(=O)[C@@H]1CCCN1C(=O)[C@H](Cc1ccccc1)NC(=O)[C@H](Cc1ccc(O)cc1)NC(=O)[C@@H](NC(=O)[C@H](C)NC(=O)[C@@H]1CCCN1C(=O)[C@@H](N)CS)[C@@H](C)O)C(=O)N[C@@H](CC(=O)O)C(=O)N[C@@H](CCC(=O)O)C(=O)N[C@@H](CO)C(=O)N[C@@H](CC(=O)O)C(=O)N[C@@H](CCC(=O)O)C(=O)N[C@@H](CCSC)C(=O)NCC(=O)N[C@@H](CS)C(=O)NCC(=O)NCC(=O)NCC(=O)NCC(=O)O` (H-CPATYFPCRNHPHCYPMEWRCDGFPDCIDESDEMGCGGGG-OH), the 50% inhibitory concentration (IC50) in assay [1] fell in the range of 0.8 to 3 nM. Further, the inhibition result in assay [2] and in assay [3] was “Active” throughout.

Regarding `CSCC[C@H](NC(=O)[C@@H]1CCCN1C(=O)[C@H](Cc1ccc(O)cc1)NC(=O)[C@H](CS)NC(=O)[C@H](Cc1cnc[nH]1)NC(=O)[C@@H]1CCCN1C(=O)[C@H](Cc1cnc[nH]1)NC(=O)[C@H](CC(N)=O)NC(=O)[C@H](CCCNC(=N)N)NC(=O)[C@H](CS)NC(=O)[C@H](CCCCN)NC(=O)[C@H](Cc1ccccc1)NC(=O)[C@H](Cc1ccc(O)cc1)NC(=O)[C@H](CO)NC(=O)[C@H](C)NC(=O)[C@@H]1CCCN1C(=O)[C@@H](N)CS)C(=O)N[C@@H](CCC(=O)O)C(=O)N[C@@H](Cc1c[nH]c2ccccc12)C(=O)N[C@@H](CCCNC(=N)N)C(=O)N[C@@H](CS)C(=O)N[C@@H](CC(=O)O)C(=O)NCC(=O)N[C@@H](Cc1ccccc1)C(=O)N[C@@H](C)C(=O)N[C@@H](CC(=O)O)C(=O)N[C@@H](CS)C(=O)N[C@H](C(=O)N[C@@H](CC(=O)O)C(=O)NCC(=O)N[C@@H](CO)C(=O)N[C@@H](CC(=O)O)C(=O)N[C@@H](CCC(=O)O)C(=O)N[C@@H](CC(C)C)C(=O)N[C@@H](CO)C(=O)N[C@@H](CS)C(=O)NCC(=O)NCC(=O)NCC(=O)NCC(=O)O)C(C)C` (H-CPASYFKCRNHPHCYPMEWRCDGFADCVDGSDELSCGGGG-OH), the IC50 in assay [1] was in the range of 0.8 to 3 nM. The inhibition result in assay [2] and in assay [3] was “Active” throughout.

As for `CC[C@H](C)[C@H](NC(=O)[C@H](CS)NC(=O)[C@H](CC(=O)O)NC(=O)[C@@H]1CCCN1C(=O)[C@H](Cc1ccccc1)NC(=O)CNC(=O)[C@H](CC(=O)O)NC(=O)[C@H](CS)NC(=O)[C@H](CCCNC(=N)N)NC(=O)[C@H](Cc1c[nH]c2ccccc12)NC(=O)[C@H](CCC(=O)O)NC(=O)[C@H](CCSC)NC(=O)[C@@H]1CCCN1C(=O)[C@H](Cc1ccc(O)cc1)NC(=O)[C@H](CS)NC(=O)[C@H](Cc1cnc[nH]1)NC(=O)[C@@H]1CCCN1C(=O)[C@H](Cc1cnc[nH]1)NC(=O)[C@H](Cc1c[nH]c2ccccc12)NC(=O)[C@H](CCCNC(=N)N)NC(=O)[C@H](CS)NC(=O)[C@H](CCC(N)=O)NC(=O)[C@H](Cc1ccccc1)NC(=O)[C@H](Cc1ccc(O)cc1)NC(=O)[C@H](CO)NC(=O)[C@H](C)NC(=O)[C@@H]1CCCN1C(=O)[C@@H](N)CS)C(=O)N[C@@H](CC(=O)O)C(=O)NCC(=O)N[C@@H](CO)C(=O)N[C@@H](CC(=O)O)C(=O)N[C@@H](CCC(=O)O)C(=O)N[C@@H](CCC(=O)O)C(=O)N[C@@H](CO)C(=O)N[C@@H](CS)C(=O)NCC(=O)NCC(=O)NCC(=O)NCC(=O)O` (H-CPASYFQCRWHPHCYPMEWRCDGFPDCIDGSDEESCGGGG-OH), the IC50 in assay [1] was in the range of 0.8 to 3 nM. Moreover, the inhibition entry in assay [2] and in assay [3] was “Active” each time.

In the case of `CC[C@H](C)[C@H](NC(=O)[C@H](CS)NC(=O)[C@H](CC(=O)O)NC(=O)[C@@H]1CCCN1C(=O)[C@H](Cc1ccccc1)NC(=O)CNC(=O)[C@H](CC(=O)O)NC(=O)[C@H](CS)NC(=O)[C@H](CCCNC(=N)N)NC(=O)[C@H](Cc1c[nH]c2ccccc12)NC(=O)[C@H](CCC(=O)O)NC(=O)[C@H](CCSC)NC(=O)[C@@H]1CCCN1C(=O)[C@H](Cc1ccc(O)cc1)NC(=O)[C@H](CS)NC(=O)[C@H](Cc1cnc[nH]1)NC(=O)[C@H](CCCCN)NC(=O)[C@H](Cc1ccc(O)cc1)NC(=O)[C@H](CCC(=O)O)NC(=O)[C@H](CCCNC(=N)N)NC(=O)[C@H](CS)NC(=O)[C@H](CCC(N)=O)NC(=O)[C@H](Cc1ccccc1)NC(=O)[C@H](Cc1ccc(O)cc1)NC(=O)[C@H](CO)NC(=O)[C@H](CCC(=O)O)NC(=O)[C@@H]1CCCN1C(=O)[C@@H](N)CS)C(=O)N[C@@H](CC(=O)O)C(=O)N[C@@H](CO)C(=O)N[C@@H](CO)C(=O)N[C@@H](CC(=O)O)C(=O)N[C@@H](CCC(=O)O)C(=O)N[C@H](C(=O)N[C@@H](CC(=O)O)C(=O)N[C@@H](CS)C(=O)NCC(=O)NCC(=O)NCC(=O)NCC(=O)O)[C@@H](C)O` (H-CPESYFQCREYKHCYPMEWRCDGFPDCIDSSDETDCGGGG-OH), the IC50 in assay [1] was 0.8 to 3 nM. The inhibition result in assay [2] and in assay [3] was “Active” in each case.
